Measured values reported in EP4567035A1, “NOVEL COMPOUND AS HYPOXIA-INDUCIBLE FACTOR 1(HIF-1) INHIBITOR OR VASCULAR ENDOTHELIAL GROWTH FACTOR (VEGF) INHIBITOR, AND PHARMACEUTICAL COMPOSITION COMPRISING SAME” (Nextgen Bioscience Co., Ltd., priority 2022, dated 2024).
Like-named read-outs stand apart in the source and are kept apart here.

Legend:
VEGF = test: Evaluation of VEGF protein secretion level (Human VEGF ELISA) in ARPE-19 cell medium under hypoxic conditions; format: cell-based
Experimental: (§1) ARPE-19 cells (Human retinal pigment epithelial cells, ATCC CRL-2302) were cultured in DMEM/F12 (LM002-08, Welgene) medium containing 10% fetal bovine serum (FBS, 16000-044, Gibco) in an incubator at 37°C with 5% carbon dioxide. When the cells grew sufficiently, they were cultured in experimental culture dishes for protein isolation and medium supernatant acquisition.
(§2) Cells were detached from the culture dish using TrypLE™ Express (Gibco). After centrifugation at 1000 rpm for 3 minutes, the supernatant was removed. The cells were counted and seeded into new culture dishes. Normoxic conditions were maintained by culturing the cells in a 37°C incubator with 5% carbon dioxide, and hypoxic conditions were maintained by culturing the cells in a hypoxic incubator with 1% oxygen, 5% carbon dioxide, and 94% nitrogen gas.
The expression of the downstream gene, angiogenesis inducer VEGF, is regulated by HIF-1α, a major transcription factor under hypoxic conditions, and the level of secreted VEGF protein can be quantitatively confirmed through ELISA (Enzyme Linked Immunosorbent Assay, Human VEGF Quantikine ELISA Kit, R&D systems). For this purpose, the following experiment was conducted.
The compounds of each Example were diluted to 0.1 nM, 1 nM, 3 nM, 10 nM, 30 nM, 100 nM, 300 nM, 1 µM and 10 µM in DMEM/F12 medium containing 1% fetal bovine serum, pretreated for 2 hours, and cultured for 24 hours under hypoxic conditions to obtain the cell medium supernatant. The supernatant was centrifuged at 1000 rpm for 3 minutes, and a specific amount was treated with a VEGF ELISA assay kit and the absorbance value was measured at 450 nm to quantitatively confirm the level of VEGF protein (see Table 1 below).
Based on the results of secreted VEGF protein expression levels in cell media treated with compounds diluted at concentrations ranging from 10 µM to 0.1 nM, the concentration range of the compound at which the secreted VEGF protein level was reduced by 50% or less compared to the untreated control group was derived.

HIF-1α = biological target: T1, HIF-1α (Homo sapiens, UniProt Q16665); test: Analysis of HIF-1α protein expression (Western blot) in ARPE-19 cells under mixed hypoxic condition; format: cell-based; settings: concentration range at which HIF-1α expression is reduced by 50% vs untreated control
T1 construct: endogenous in cells; host or cells: ARPE-19 (ATCC CRL-2302)
Experimental: as §1, §2
In a disease of macular degeneration, hypoxia is a very important condition, and since the expression of downstream genes is regulated by HIF-1α, a transcription factor that is stabilized in hypoxic conditions, the following experiment was conducted to confirm this.
Mixed hypoxic condition was used for HIF-1α stability experiments, in which hypoxia was induced with 1% oxygen and the stability of HIF-1α was enhanced by treatment with cobalt chloride (CoCl2).
The compounds of each Example were diluted to 0.1 nM, 1 nM, 3 nM, 10 nM, 30 nM, 100 nM, 300 nM, 1 µM, and 10 µM in DMEM/F12 medium without fetal bovine serum, pretreated for 16 hours or 2 hours, and cultured for 1 hour or 24 hours in a mixed hypoxic condition. The cell medium was discarded, and protein lysates were obtained by rapidly treating with protein lysis buffer (RIPA Lysis and Extraction buffer, Thermo Fisher Scientific). LDS (4X Bolt ™ LDS Sample buffer) and reducing agent (10X Bolt ™ Sample Reducing Agent) were added together to the protein lysate, and heated at 70°C for 10 minutes. The lysate was separated by electrophoresis on a 4-12% Bis-Tris gel, transferred to a PVDF membrane, and blocked with 3% BSA (Albumin, Bovine, Fraction V, MPbio). The membrane was incubated overnight at 4°C with a mixture of anti-HIF-1α (ab179483, abcam) and anti-b-actin (MA515739, Invitrogen) antibodies at a ratio of 1:4000. The following day, the membrane was treated with a peroxidase-conjugated secondary antibody for 1 hour at room temperature, and the target protein was expressed using an ECL solution (Clarity ™ Western ECL substrate, Bio-rad) and quantified.
Based on the results of the expression level of HIF-1α in cells treated with compounds diluted from 10 µM to 0.1 nM, the concentration range of the compound at which the expression level of HIF-1α was reduced by 50% or less compared to the untreated control group was derived.

[1] = ARPE-19 cells, pretreated 2 hours, 24 hours hypoxic conditions, secreted VEGF in medium supernatant by ELISA, concentration range reducing VEGF by 50% vs untreated control, read-out: IC50 VEGF
[2] = mixed hypoxic condition (1% oxygen + CoCl2) for 1 hour, read-out: IC50 HIF-1α Hypoxia (1 hour)
[3] = values marked * in the table, mixed hypoxic condition (1% oxygen + CoCl2) for 24 hours, read-out: IC50 HIF-1α, Hypoxia(24h)

T1 sequence (Q16665 whole entry): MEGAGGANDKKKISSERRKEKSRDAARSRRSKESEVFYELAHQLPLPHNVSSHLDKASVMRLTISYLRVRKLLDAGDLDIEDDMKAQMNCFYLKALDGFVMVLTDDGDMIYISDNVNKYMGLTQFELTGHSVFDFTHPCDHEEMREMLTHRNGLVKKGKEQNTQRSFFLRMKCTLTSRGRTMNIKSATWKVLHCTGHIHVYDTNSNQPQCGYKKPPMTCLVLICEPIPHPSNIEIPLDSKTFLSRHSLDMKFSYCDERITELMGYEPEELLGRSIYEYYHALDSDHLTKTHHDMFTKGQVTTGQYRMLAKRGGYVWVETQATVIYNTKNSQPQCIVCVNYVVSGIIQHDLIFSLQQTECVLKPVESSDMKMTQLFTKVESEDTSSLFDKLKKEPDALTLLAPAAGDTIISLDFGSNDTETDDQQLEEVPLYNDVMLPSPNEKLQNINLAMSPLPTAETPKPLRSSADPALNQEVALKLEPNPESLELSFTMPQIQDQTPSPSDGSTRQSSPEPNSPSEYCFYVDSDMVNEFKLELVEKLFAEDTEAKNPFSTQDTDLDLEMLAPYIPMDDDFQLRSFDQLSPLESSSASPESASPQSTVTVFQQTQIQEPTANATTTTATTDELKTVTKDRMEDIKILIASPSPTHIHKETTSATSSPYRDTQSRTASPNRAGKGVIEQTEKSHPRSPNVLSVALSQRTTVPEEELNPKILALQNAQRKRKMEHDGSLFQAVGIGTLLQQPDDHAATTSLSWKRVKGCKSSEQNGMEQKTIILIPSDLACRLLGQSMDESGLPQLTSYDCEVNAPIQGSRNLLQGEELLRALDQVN

O=C(NCc1cccc(F)c1)c1ncnc2nc(C3CCCC3)[nH]c12 [Example 13, 8-Cyclopentyl-N-(3-fluorobenzyl)-7H-purine-6-carboxamide]
IC50 (VEGF; [1]): 100 to 1000 nM | DC50 (HIF-1α; [2]): < 100 nM

O=C(NCc1cc(F)cc(-c2cnn(-c3ccc(F)cc3)c2)c1)c1ncnc2nc(C3CC(F)(F)C3)[nH]c12 [Example 92, 8-(3,3-Difluorocyclobutyl)-N-(3-fluoro-5-(1-(4-fluorophenyl)-1H-pyrazol-4-yl)benzyl)-7H-purine-6-carboxamide]
IC50 (VEGF; [1]): 100 to 1000 nM | DC50 (HIF-1α; [3]): 100 to 1000 nM

O=C(NCc1cc(F)cc(-c2cnn(C3CCCCC3)c2)c1)c1ncnc2nc(C3CCCC3)[nH]c12 [Example 139, N-(3-(1-cyclohexyl-1H-pyrazol-4-yl)-5-fluorobenzyl)-8-cyclopentyl-7H-purine-6-carboxamide]
IC50 (VEGF; [1]): < 100 nM | DC50 (HIF-1α; [3]): < 100 nM

O=C(NCc1cc(F)cc(Nc2cccc(C(F)(F)F)c2)c1)c1ncnc2nc(C3CCCC3)[nH]c12 [Example 17, 8-Cyclopentyl-N-(3-fluoro-5-((3-(trifluoromethyl)phenyl)amino)benzyl)-7H-purine-6-carboxamide]
IC50 (VEGF; [1]): 100 to 1000 nM | DC50 (HIF-1α; [2]): < 100 nM

O=C(NCc1cc(F)cc(-c2nnc(-c3ccc(F)cc3)o2)c1)c1ncnc2nc(C3CCCC3)[nH]c12 [Example 132, 8-Cyclopentyl-N-(3-fluoro-5-(5-(4-fluorophenyl)-1,3,4-oxadiazol-2-yl)benzyl)-7H-purine-6-carboxamide]
IC50 (VEGF; [1]): > 10000 nM | DC50 (HIF-1α; [3]): 1000 to 10000 nM

O=C(NCc1cc(F)cc(NC2CCCC2)c1)c1ncnc2nc(C3CCCC3)[nH]c12 [Example 135, 8-Cyclopentyl-N-(3-(cyclopentylamino)-5-fluorobenzyl)-7H-purine-6-carboxamide]
IC50 (VEGF; [1]): > 10000 nM | DC50 (HIF-1α; [3]): 100 to 1000 nM

O=C(NCc1cccc(-c2cnn(-c3ccc(F)cc3)c2)c1)c1ncnc2nc(C3CCCC3)[nH]c12 [Example 57, 8-Cyclopentyl-N-(3-(1-(4-fluorophenyl)-1H-pyrazol-4-yl)benzyl)-7H-purine-6-carboxamide]
IC50 (VEGF; [1]): 100 to 1000 nM | DC50 (HIF-1α; [3]): < 100 nM

[2H]c1c([2H])c([2H])c(-n2cc(-c3cc(F)cc(CNC(=O)c4ncnc5nc(C6CCC(F)(F)C6)[nH]c45)c3)cn2)c([2H])c1[2H] (stereo not shown) [Example 148, 8-(3,3-Difluorocyclopentyl)-N-(3-fluoro-5-(1-(phenyl-d5)-1H-pyrazol-4-yl)benzyl)-7H-purine-6-carboxamide]
IC50 (VEGF; [1]): 100 to 1000 nM | DC50 (HIF-1α; [3]): < 100 nM

O=C(NCc1cc(F)cc(Nc2cc[nH]n2)c1)c1ncnc2nc(C3CCCC3)[nH]c12 [Example 120, N-(3-((1H-pyrazol-3-yl)amino)-5-fluorobenzyl)-8-cyclopentyl-7H-purine-6-carboxamide]
IC50 (VEGF; [1]): > 10000 nM | DC50 (HIF-1α; [3]): 100 to 1000 nM

O=C(NCc1cc(F)cc(Nc2ccccc2)c1)c1ncnc2nc(C3CCCC3)[nH]c12 [Example 15, 8-Cyclopentyl-N-(3-fluoro-5-(phenylamino)benzyl)-7H-purine-6-carboxamide]
IC50 (VEGF; [1]): 100 to 1000 nM | DC50 (HIF-1α; [2]): < 100 nM

[2H]C1([2H])C(c2nc3ncnc(C(=O)NCc4cc(F)cc(-c5cnn(-c6ccc(F)cc6)c5)c4)c3[nH]2)C([2H])([2H])C([2H])([2H])C1([2H])[2H] [Example 153, 8-(Cyclopentyl-2,2,3,3,4,4,5,5-d8)-N-(3-fluoro-5-(1-(4-fluorophenyl)-1H-pyrazol-4-yl)benzyl)-7H-purine-6-carboxamide]
IC50 (VEGF; [1]): 100 to 1000 nM | DC50 (HIF-1α; [3]): < 100 nM

O=C(NCc1cc(F)cc(Nc2ccc(Cl)cc2F)c1)c1ncnc2nc(C3CCCC3)[nH]c12 [Example 20, N-(3-((4-chloro-2-fluorophenyl)amino)-5-fluorobenzyl)-8-cyclopentyl-7H-purine-6-carboxamide]
IC50 (VEGF; [1]): 100 to 1000 nM | DC50 (HIF-1α; [2]): < 100 nM

O=C(NCc1cc(F)cc(-c2cnn(-c3ccc(F)cc3)c2)c1)c1ncnc2nc([C@H]3CCCO3)[nH]c12 [Example 85, (R)-N-(3-fluoro-5-(1-(4-fluorophenyl)-1H-pyrazol-4-yl)benzyl)-8-(tetrahydrofuran-2-yl)-7H-purine-6-carboxamide]
IC50 (VEGF; [1]): 1000 to 10000 nM | DC50 (HIF-1α; [3]): < 100 nM

CCOC(=O)c1ccc(Nc2cc(F)cc(CNC(=O)c3ncnc4nc(C5CCCC5)[nH]c34)c2)cc1 [Example 127, Ethyl 4-((3-((8-cyclopentyl-7H-purine-6-carboxamido)methyl)-5-fluorophenyl)amino)benzoate]
IC50 (VEGF; [1]): > 10000 nM | DC50 (HIF-1α; [3]): 100 to 1000 nM

O=C(NCc1cc(F)cc(-c2cnn(Cc3ccccc3)c2)c1)c1ncnc2nc(C3CCCC3)[nH]c12 [Example 9, N-(3-(1-benzyl-1H-pyrazol-4-yl)-5-fluorobenzyl)-8-cyclopentyl-7H-purine-6-carboxamide]
IC50 (VEGF; [1]): 100 to 1000 nM | DC50 (HIF-1α; [2]): < 100 nM

O=C(NCc1cc(Cl)cc(-c2cnn(-c3ccc(F)cc3)c2)c1)c1ncnc2nc(C3CCCC3)[nH]c12 [Example 104, N-(3-chloro-5-(1-(4-fluorophenyl)-1H-pyrazol-4-yl)benzyl)-8-cyclopentyl-7H-purine-6-carboxamide]
IC50 (VEGF; [1]): 100 to 1000 nM | DC50 (HIF-1α; [3]): < 100 nM

O=C(NCc1cc(F)cc(-c2cnn(CC(F)F)c2)c1)c1ncnc2nc(C3CCCC3)[nH]c12 [Example 2, 8-Cyclopentyl-N-(3-(1-(2,2-difluoroethyl)-1H-pyrazol-4-yl)-5-fluorobenzyl)-7H-purine-6-carboxamide]
IC50 (VEGF; [1]): 100 to 1000 nM | DC50 (HIF-1α; [2]): < 100 nM

O=C(NCc1ccc(-c2cnn(-c3ccc(F)cc3)c2)c(F)c1)c1ncnc2nc(C3CCCC3)[nH]c12 [Example 109, 8-Cyclopentyl-N-(3-fluoro-4-(1-(4-fluorophenyl)-1H-pyrazol-4-yl)benzyl)-7H-purine-6-carboxamide]
IC50 (VEGF; [1]): > 10000 nM | DC50 (HIF-1α; [3]): > 10000 nM

O=C(NCc1cc(F)cc(-c2cnn(-c3ccoc3)c2)c1)c1ncnc2nc(C3CCCC3)[nH]c12 [Example 124, 8-Cyclopentyl-N-(3-fluoro-5-(1-(furan-3-yl)-1H-pyrazol-4-yl)benzyl)-7H-purine-6-carboxamide]
IC50 (VEGF; [1]): 100 to 1000 nM | DC50 (HIF-1α; [3]): < 100 nM

COc1ccccc1Nc1cc(F)cc(CNC(=O)c2ncnc3nc(C4CCCC4)[nH]c23)c1 [Example 33, 8-Cyclopentyl-N-(3-fluoro-5-((2-methoxyphenyl)amino)benzyl)-7H-purine-6-carboxamide]
IC50 (VEGF; [1]): 100 to 1000 nM | DC50 (HIF-1α; [2]): < 100 nM

O=C(NCc1cc(F)cc(-n2cc(-c3ccc(F)cc3)nn2)c1)c1ncnc2nc(C3CCCC3)[nH]c12 [Example 116, 8-Cyclopentyl-N-(3-fluoro-5-(4-(4-fluorophenyl)-1H-1,2,3-triazol-1-yl)benzyl)-7H-purine-6-carboxamide]
IC50 (VEGF; [1]): > 10000 nM | DC50 (HIF-1α; [3]): 100 to 1000 nM

CS(=O)(=O)c1cccc(-n2cc(-c3cc(F)cc(CNC(=O)c4ncnc5nc(C6CCCC6)[nH]c45)c3)cn2)c1 [Example 45, 8-Cyclopentyl-N-(3-fluoro-5-(1-(3-(methylsulfonyl)phenyl)-1H-pyrazol-4-yl)benzyl)-7H-purine-6-carboxamide]
IC50 (VEGF; ARPE-19 cells, pretreated 2 hours, 24 hours hypoxic conditions, ELISA, read-out: concentration at which the secreted VEGF protein level was suppressed to less than 50%): < 100 nM | IC50 (VEGF; [1]): < 100 nM | IC50 (VEGF; Experimental Example 2 (HIF-1α Western blot), read-out: concentration at which the expression level of VEGF was suppressed to less than 50%): < 100 nM | DC50 (HIF-1α; [3]): < 100 nM
